{"source": "patent US12233044B2", "about": "“Cannabidiol and chitosan compositions and methods of using the same” (priority 2017, dated 2025)", "key": {"[1]": {"assay": "Guinea pig induced dyslipidemia model, body weight gain", "type": "in vivo", "method": "The objective of this research was to examine the cholesterol blood levels of guinea pigs, fed ad libitum a high-level fat diet rich in lauric and myristic acids alone or in combination with various formulations.\n“Day 0” was initiation of the Study period, animals received regular guinea pig diet. Day 3 the animals were subjected to blood withdrawal and subsequently the first day of supplying the fattening diet. On day 11 chitosan diet was administered to the relevant group. On day 24 CBD diet and CBD chitosan diet were administered until day 27.\nDetermination of individual body weights of animals was conducted once weekly during the entire study."}, "[2]": {"system": "Triglyceride levels in the serum", "assay": "Guinea pig induced dyslipidemia model, serum triglycerides", "type": "in vivo", "method": "The blood cholesterol and triglycerides were examined in male guinea pigs, following an oral administration of the various formulations in correlation to the Controlled group.\nMeasurement of cholesterol, and Triglyceride levels in the serum were performed following a 7-10 day of exposure to the different diets.\nDay 3 all animals; Day 11 all animals; Day 24 all animals; Day 27 CBD, CNTL-fattening and CBD-chitosan group.\nThe blood collection tubes (BD 367955) were specialized for serum separation, containing a clot activator and a gel which separates the cell content (pellet) from the serum (supernatant) after centrifugation. Blood samples of ˜0.5 mL/animal were collected into the pre-marked tubes (study code, animal number and date). At all times blood was collected under anesthesia: Ketamine 20-40 mg/kg & Diazepam 1-2 mg/kg IM. Blood collection of all animals was performed via the periorbital eye venous plexus puncture.\nBlood samples were left at room temperature for at least 45 minutes, and subsequently centrifuged ([…], 1790 g, 10 min/RT) for serum separation and left in the specialized tubes with the gel partitioning the separated serum and cell content. The samples were transferred as such to AML.\nFollowing serum separation, the samples were kept at 2-8° C. until transferred to AML, for blood lipid profile analysis (cholesterol, LDL, HDL and Triglyceride levels). Sample transfer was via wet ice packed in Styrofoam boxes and transferred within 1-2 hours from blood separation."}}, "note": "Several values for one entry are separate records, joined by “and”; a condition that tells them apart may be missing. Equal values may be shown once."}
{"molecule": "C=C(C)[C@@H]1CCC(C)=C[C@H]1c1c(O)cc(CCCCC)cc1O", "note": "[CBD, Cannabidiol]", "values": [{"measurement": "Change in Weight by group, Mean", "setting": "[1]; change in weight during treatment, group mean, N 15", "value": 58.8}, {"measurement": "Mean difference, Change in Weight by group", "setting": "[1]; contrast CBD - CHIT", "value": 34.5}, {"measurement": "Mean difference, Change in Weight by group", "setting": "[1]; contrast CNTL - CBD", "value": 6.0}, {"measurement": "Mean difference, DELTA WEIGHT second phase", "setting": "[1]; contrast CNTL - CBD", "value": 2.8}, {"measurement": "DELTA WEIGHT, Second phase Group", "setting": "[1]; individual animals, second phase treatment", "value": "108.00 and 133.00 and 157.00 and 130.00"}, {"measurement": "DELTA WEIGHT by Second phase Group, Mean", "setting": "[1]; study initiation to after second phase treatment, group mean", "value": 132.0}, {"measurement": "Mean difference, TG delta 27 D to 10 D", "setting": "[2]; contrast CNTL - CBD CNTL", "value": 28.3}, {"measurement": "TG delta 27 D to 10 D by group second phase, Mean", "setting": "[2]; group mean", "value": "−33.0"}, {"measurement": "Triglycerides lowering effect (in words)", "setting": "[2]; guinea pig, in vivo", "value": "lower TG values"}, {"measurement": "Difference in triglycerides versus CNTL group", "setting": "[2]; significance", "value": "not significant"}]}
